Reference: patent US11001569B2, “6-membered heteroaromatic substituted cyanoindoline derivatives as NIK inhibitors” (Janssen Pharmaceutica NV, priority 2016, dated 2021)
Read-outs that look alike come from different tables or passages of the source.

Key:
[1] = test system: JJN-3 (NIK translocated) multiple myeloma cells; experiment: Antiproliferative activity on JJN-3 multiple myeloma cells (CellTiter-Glo); type: cell-based, human; conditions: JJN-3 (NIK translocated) cells, 96 hr treatment, averaged values, read-out: JJN-3 Proliferation inhibition (IC50 (nM))
How it was run: (§1)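 Cells plated at 15000 (JJN3) or 20000 (KMS12BM) per well and treated 96 h at 37° C, 5% CO2, final DMSO 0.3%, 9-point 1:3 dilutions. Viability by CellTiter-Glo luminescence; time-zero blank subtracted, growth expressed as percent of untreated control.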

[2] = target: recombinant human NF-kappaB-inducing Kinase (NIK/MAP3K14) (Homo sapiens, UniProt Q99558); experiment: Inhibition of auto-phosphorylation of recombinant human NIK/MAP3K14 activity (AlphaScreen); type: biochemical; conditions: 25 microM ATP, averaged over all measurements on all batches
[3] = test system: KMS12-BM (NIK WT) multiple myeloma cells; experiment: Antiproliferative activity on KMS12-BM multiple myeloma cells (CellTiter-Glo); type: cell-based, human; conditions: 96 hr treatment, averaged values, read-out: KMS-12 Proliferation inhibition (IC50 (nM))
How it was run: as §1

[4] = test system: P-IKKα levels in L363 (NIK translocated multiple myeloma) cells; experiment: Effect of compounds on P-IKKα levels in L363 cells (Mesoscale sandwich immuno-assay); type: cell-based, human; conditions: 2 hr treatment, averaged values, read-out: Inhibition of pIKKα_L-363 (IC50 (nM))
How it was run: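 BAFF-stimulated (1 μg/ml stock) L363 cells preincubated 24 hr at 37° C, then treated 2 hr with compound (final 1% DMSO, 8-point 1:3 dilutions). Lysate P-IKKα measured by Mesoscale sandwich immunoassay; IC50 from sigmoidal fit of % inhibition versus log concentration.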

recombinant human NF-kappaB-inducing Kinase (NIK/MAP3K14), sequence (Q99558 whole entry): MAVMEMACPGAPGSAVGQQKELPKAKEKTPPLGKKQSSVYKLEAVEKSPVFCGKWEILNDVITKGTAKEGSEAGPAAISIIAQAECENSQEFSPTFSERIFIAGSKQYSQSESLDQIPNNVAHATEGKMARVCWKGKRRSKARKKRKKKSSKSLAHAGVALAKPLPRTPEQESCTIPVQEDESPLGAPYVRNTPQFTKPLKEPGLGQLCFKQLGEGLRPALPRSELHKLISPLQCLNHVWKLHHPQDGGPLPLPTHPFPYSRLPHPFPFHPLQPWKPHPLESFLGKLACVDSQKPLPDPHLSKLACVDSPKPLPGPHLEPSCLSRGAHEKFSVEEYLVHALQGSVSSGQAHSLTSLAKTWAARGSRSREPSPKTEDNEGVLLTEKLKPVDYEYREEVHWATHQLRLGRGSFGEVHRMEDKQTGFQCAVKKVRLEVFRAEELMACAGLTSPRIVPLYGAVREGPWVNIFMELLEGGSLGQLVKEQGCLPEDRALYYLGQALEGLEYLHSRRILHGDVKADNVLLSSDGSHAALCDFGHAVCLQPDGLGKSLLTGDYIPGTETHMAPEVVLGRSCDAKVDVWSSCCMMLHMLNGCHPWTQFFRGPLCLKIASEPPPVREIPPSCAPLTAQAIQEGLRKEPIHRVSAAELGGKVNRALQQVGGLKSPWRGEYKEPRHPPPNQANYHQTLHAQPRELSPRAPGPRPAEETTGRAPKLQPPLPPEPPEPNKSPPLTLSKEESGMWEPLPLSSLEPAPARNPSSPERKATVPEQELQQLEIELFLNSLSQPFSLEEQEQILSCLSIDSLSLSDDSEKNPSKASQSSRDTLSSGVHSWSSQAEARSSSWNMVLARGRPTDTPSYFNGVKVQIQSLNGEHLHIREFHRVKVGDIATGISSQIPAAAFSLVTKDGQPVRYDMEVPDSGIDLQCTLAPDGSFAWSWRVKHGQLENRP

Row | Structure (SMILES) | IC50 ([1]; Homo sapiens, JJN-3, 96 h) | IC50 [2] | IC50 ([3]; Homo sapiens, KMS-12-BM, 96 h) | IC50 ([4]; Homo sapiens, L-363, 2 h) | melting point | IC50 [1] | IC50 [3] | IC50 [4]
1 | COc1nc(C)c(Nc2nccc(-c3cc(C#N)c4c(c3)[C@@](C)(CO)CN4)n2)cc1C [Compound 168] | 39 nM | 3 nM | > 10000 nM | 2.4 nM | 260 °C | – | – | –
2 | Cc1cc(Nc2nccc(-c3cc(C#N)c4c(c3)[C@@](C)(CO)CN4)n2)c(=O)n(CCN2CC(C)OC(C)C2)c1 (stereo partly drawn) [Compound 2i] | 479 nM | 1.8 nM | 5500 nM | 1.1 nM | 135 °C | – | – | –
3 | CC1(COc2ncc(C#N)cc2Nc2nccc(-c3cc(C#N)c4c(c3)[C@@](C)(CO)CN4)n2)COC1 [Compound 76] | > 10000 nM | 5.1 nM | > 10000 nM | 26.9 nM | 162 °C | – | – | –
4 | CN(C)C(=O)CCc1ccc(Nc2nccc(-c3cc(C#N)c4c(c3)[C@@](C)(CO)CN4)n2)c(CCC2CC2)n1 [Compound 89] | 912 nM | 3.6 nM | > 10000 nM | 14.8 nM | 301 °C | – | – | –
5 | C[C@]1(CO)CNc2c(C#N)cc(-c3ccnc(Nc4cc(F)cn(CCN5CCOCC5)c4=O)n3)cc21 [Compound 3i] | ~1780 nM | 1.3 nM | > 10000 nM | 3.3 nM | 252 °C | – | – | –
6 | COc1ncc(C(F)(F)F)cc1Nc1nccc(-c2cc(C#N)c3c(c2)[C@@](C)(CO)CN3)n1 [Compound 183] | 63 nM | 15.8 nM | > 10000 nM | 40.7 nM | 209 °C | – | – | –

More lines, now with the values ahead:

Row | IC50 ([1]; Homo sapiens, JJN-3, 96 h) | IC50 [2] | IC50 ([3]; Homo sapiens, KMS-12-BM, 96 h) | IC50 ([4]; Homo sapiens, L-363, 2 h) | melting point | IC50 [1] | IC50 [3] | IC50 [4] | Structure (SMILES)
7 | 41 nM | 2.3 nM | > 10000 nM | 1.5 nM | 287 °C | – | – | – | Cc1cc(Nc2nccc(-c3cc(C#N)c4c(c3)[C@@](C)(CO)CN4)n2)c(=O)n(CCN2CCCOCC2)c1 [Compound 20i]
8 | – | 12 nM | – | – | 220 °C | 81 nM | ~2880 nM | 19.5 nM | Cc1cnc(OC2CCN(C)CC2F)c(Nc2nccc(-c3cc(C#N)c4c(c3)[C@@](C)(CO)CN4)n2)c1 (stereo partly drawn) [Compound 155]
9 | 933 nM | 15.1 nM | > 10000 nM | 69.2 nM | 225 °C | – | – | – | Cc1cnc(C2CCOCC2)c(Nc2nccc(-c3cc(C#N)c4c(c3)[C@@](C)(CO)CN4)n2)c1 [Compound 173]
